pIC50: −log10 of the molar value. Several values for one entry are separate records, joined by “and”; a condition that tells them apart may be missing. Identical values can stand only once. Like-named read-outs stand apart in the source and are kept apart here.
Tests used:
[1] = biological target: T1, MEK4 (Homo sapiens, UniProt P45985); experiment: DiscoverX scanMAX binding assay; settings: 1 μM
T1 construct: purchased Eurofins (radiometric) / Eurofins DiscoverX scanMAX / Reaction Biology / SignalChem
Excerpt: (§1) This panel includes 403 wild-type (WT) human kinases but not TTBK1/2. […] Substantial overlap between the MRC and DiscoverX scanMAX kinase panels allows the comparison of results for the same kinases in two different assay formats (enzymatic versus binding, respectively) at the same concentration. Selectivity results are included in two columns within Table 1. […] The rightmost column converts this selectivity score into the number of kinases with a PoC < 10 in the scanMAX panel.
(§2) The Eurofins DiscoverX Corporation scanMAX assay platform was employed to assess the selectivity of specific analogs at a single concentration (1 µM). As described previously, this assay platform profiles a compound against 403 wild-type human kinases and delivers percent of control (PoC) values. These percent of control values are included in Table 1 and corresponding kinome tree diagrams as well as tables for each analog included in Fig. S1.

[2] = biological target: T2, RPS6KA4(Kin.Dom.2-C-terminal) (Homo sapiens, UniProt O75676); experiment: DiscoverX scanMAX binding assay; settings: 1 μM
T2 construct: RPS6KA4(Kin.Dom.2-C-terminal); purchased Eurofins (radiometric) / Eurofins DiscoverX scanMAX / Reaction Biology / SignalChem
Excerpt: as §1, §2

[3] = biological target: T3, PIKfyve (Homo sapiens, UniProt Q9Y2I7); experiment: DiscoverX scanMAX binding assay; settings: 1 μM
T3 construct: purchased Eurofins (radiometric) / Eurofins DiscoverX scanMAX / Reaction Biology / SignalChem
Excerpt: as §1, §2

[4] = biological target: T4, CSNK1D (Homo sapiens, UniProt P48730); experiment: DiscoverX scanMAX binding assay; settings: 1 μM
T4 construct: purchased Eurofins (radiometric) / Eurofins DiscoverX scanMAX / Reaction Biology / SignalChem
T4 sequence (P48730 whole entry): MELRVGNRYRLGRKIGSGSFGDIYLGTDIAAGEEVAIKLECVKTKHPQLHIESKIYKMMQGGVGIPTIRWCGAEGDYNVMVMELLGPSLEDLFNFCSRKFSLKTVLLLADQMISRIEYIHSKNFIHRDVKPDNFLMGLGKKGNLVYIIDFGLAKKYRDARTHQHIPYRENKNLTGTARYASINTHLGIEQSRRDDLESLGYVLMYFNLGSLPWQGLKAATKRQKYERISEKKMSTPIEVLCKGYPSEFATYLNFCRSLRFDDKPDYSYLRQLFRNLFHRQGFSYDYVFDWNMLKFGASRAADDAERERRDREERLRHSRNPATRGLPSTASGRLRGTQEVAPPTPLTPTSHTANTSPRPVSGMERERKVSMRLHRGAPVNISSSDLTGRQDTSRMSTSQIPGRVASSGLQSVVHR
Excerpt: as §1, §2

[5] = biological target: T5, MYLK4 (Homo sapiens, UniProt Q86YV6); experiment: DiscoverX scanMAX binding assay; settings: 1 μM
T5 construct: purchased Eurofins (radiometric) / Eurofins DiscoverX scanMAX / Reaction Biology / SignalChem
T5 sequence (Q86YV6 whole entry): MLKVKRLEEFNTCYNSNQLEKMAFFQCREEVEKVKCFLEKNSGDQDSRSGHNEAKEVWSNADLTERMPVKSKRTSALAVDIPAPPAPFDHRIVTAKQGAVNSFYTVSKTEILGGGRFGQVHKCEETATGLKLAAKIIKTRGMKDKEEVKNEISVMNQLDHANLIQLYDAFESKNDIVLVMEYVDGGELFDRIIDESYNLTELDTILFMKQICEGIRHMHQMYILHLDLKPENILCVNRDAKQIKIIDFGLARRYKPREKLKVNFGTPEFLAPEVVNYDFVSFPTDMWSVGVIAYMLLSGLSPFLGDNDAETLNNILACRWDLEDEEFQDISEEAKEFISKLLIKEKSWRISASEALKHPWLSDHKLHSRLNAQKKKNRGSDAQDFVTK
Excerpt: as §1, §2

[6] = biological target: T6, TAOK2 (Homo sapiens, UniProt Q9UL54); experiment: DiscoverX scanMAX binding assay; settings: 1 μM
T6 construct: purchased Eurofins
T6 sequence (Q9UL54 1-1235): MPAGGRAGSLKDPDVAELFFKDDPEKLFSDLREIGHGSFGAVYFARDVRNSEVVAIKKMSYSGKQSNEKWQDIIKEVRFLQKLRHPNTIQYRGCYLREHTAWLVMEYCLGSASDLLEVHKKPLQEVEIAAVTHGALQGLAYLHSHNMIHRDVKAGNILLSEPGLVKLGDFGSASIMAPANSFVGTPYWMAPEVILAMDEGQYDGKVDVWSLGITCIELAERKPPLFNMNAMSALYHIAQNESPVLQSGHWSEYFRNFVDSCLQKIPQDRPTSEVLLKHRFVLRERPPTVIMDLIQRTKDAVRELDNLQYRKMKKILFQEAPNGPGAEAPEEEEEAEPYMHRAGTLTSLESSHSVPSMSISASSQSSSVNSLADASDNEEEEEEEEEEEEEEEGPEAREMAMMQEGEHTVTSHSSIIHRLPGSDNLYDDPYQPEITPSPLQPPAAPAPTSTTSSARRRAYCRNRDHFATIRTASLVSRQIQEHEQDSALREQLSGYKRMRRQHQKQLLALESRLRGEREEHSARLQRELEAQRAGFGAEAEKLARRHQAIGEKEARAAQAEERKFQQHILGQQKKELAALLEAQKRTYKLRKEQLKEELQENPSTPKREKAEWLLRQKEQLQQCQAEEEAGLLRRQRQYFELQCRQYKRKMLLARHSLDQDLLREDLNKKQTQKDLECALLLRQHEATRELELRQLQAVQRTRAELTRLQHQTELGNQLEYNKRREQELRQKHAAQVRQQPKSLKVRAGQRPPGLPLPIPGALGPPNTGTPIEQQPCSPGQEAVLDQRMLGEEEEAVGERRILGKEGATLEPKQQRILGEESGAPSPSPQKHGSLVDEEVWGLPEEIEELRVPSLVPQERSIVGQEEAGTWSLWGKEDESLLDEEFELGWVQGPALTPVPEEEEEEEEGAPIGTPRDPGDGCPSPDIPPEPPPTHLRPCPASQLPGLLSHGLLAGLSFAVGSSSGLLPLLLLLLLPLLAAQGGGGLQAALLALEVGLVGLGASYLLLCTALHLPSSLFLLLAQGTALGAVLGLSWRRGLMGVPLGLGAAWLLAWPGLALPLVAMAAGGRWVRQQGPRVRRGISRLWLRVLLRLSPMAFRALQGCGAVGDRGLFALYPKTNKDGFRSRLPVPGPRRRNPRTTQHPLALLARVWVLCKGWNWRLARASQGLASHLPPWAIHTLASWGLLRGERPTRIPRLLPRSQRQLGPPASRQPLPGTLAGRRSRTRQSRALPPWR
Excerpt: as §1, §2

[7] = biological target: T7, PRKCE (Homo sapiens, UniProt Q02156); experiment: DiscoverX scanMAX binding assay; settings: 1 μM
T7 construct: purchased Eurofins (radiometric) / Eurofins DiscoverX scanMAX / Reaction Biology / SignalChem
Excerpt: as §1, §2

[8] = biological target: T8, TTBK2 kinase domain (Homo sapiens, UniProt Q6IQ55); experiment: Thermal shift assay; type: binding; settings: kinase domain 2 µM, inhibitor 10 µM
T8 construct: Either the TTBK1 or TTBK2 kinase domain at 2 µM
T8 sequence (Q6IQ55 21-284 limits assumed): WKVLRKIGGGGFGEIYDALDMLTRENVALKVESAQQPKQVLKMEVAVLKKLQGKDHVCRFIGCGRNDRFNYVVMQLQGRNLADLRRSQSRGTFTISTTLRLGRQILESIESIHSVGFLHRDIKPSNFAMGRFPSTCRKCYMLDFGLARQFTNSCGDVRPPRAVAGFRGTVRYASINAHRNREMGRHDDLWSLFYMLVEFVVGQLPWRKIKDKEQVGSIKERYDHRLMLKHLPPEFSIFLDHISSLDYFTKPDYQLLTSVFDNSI
Experimental: Either the TTBK1 or TTBK2 kinase domain at 2 µM in 10 mM HEPES pH 7.5 and 500 mM NaCl was mixed with the inhibitors at 10 µM in the presence of SyPRO orange dye (Invitrogen). A Real-Time PCR Mx3005p machine (Stratagene) was used to measure the fluorescence spectrum. The Tm shift assays and data evaluation for melting temperatures were performed according to the previously described protocol.

[9] = system: 403 wild-type (WT) human kinases; experiment: DiscoverX scanMAX kinome-wide selectivity; type: binding; settings: for # scanMAX kinases with PoC < 10: 1 μM; for S10(1 μM): share of 403 WT human kinases with PoC < 10 at 1 μM
Excerpt: as §1, §2

[10] = biological target: 17-member enzymatic kinase assay panel; experiment: 17-member enzymatic kinase panel, number of kinases inhibited; type: biochemical; settings: 1 μM; of 17 kinases
[11] = biological target: T9, TTBK2 (Homo sapiens, UniProt Q6IQ55); experiment: Eurofins enzymatic radiometric kinase assay; type: biochemical; settings: for TTBK2 PoC: 1 μM, duplicate, lower = greater inhibition
T9 construct: purchased Eurofins
T9 sequence (Q6IQ55 whole entry): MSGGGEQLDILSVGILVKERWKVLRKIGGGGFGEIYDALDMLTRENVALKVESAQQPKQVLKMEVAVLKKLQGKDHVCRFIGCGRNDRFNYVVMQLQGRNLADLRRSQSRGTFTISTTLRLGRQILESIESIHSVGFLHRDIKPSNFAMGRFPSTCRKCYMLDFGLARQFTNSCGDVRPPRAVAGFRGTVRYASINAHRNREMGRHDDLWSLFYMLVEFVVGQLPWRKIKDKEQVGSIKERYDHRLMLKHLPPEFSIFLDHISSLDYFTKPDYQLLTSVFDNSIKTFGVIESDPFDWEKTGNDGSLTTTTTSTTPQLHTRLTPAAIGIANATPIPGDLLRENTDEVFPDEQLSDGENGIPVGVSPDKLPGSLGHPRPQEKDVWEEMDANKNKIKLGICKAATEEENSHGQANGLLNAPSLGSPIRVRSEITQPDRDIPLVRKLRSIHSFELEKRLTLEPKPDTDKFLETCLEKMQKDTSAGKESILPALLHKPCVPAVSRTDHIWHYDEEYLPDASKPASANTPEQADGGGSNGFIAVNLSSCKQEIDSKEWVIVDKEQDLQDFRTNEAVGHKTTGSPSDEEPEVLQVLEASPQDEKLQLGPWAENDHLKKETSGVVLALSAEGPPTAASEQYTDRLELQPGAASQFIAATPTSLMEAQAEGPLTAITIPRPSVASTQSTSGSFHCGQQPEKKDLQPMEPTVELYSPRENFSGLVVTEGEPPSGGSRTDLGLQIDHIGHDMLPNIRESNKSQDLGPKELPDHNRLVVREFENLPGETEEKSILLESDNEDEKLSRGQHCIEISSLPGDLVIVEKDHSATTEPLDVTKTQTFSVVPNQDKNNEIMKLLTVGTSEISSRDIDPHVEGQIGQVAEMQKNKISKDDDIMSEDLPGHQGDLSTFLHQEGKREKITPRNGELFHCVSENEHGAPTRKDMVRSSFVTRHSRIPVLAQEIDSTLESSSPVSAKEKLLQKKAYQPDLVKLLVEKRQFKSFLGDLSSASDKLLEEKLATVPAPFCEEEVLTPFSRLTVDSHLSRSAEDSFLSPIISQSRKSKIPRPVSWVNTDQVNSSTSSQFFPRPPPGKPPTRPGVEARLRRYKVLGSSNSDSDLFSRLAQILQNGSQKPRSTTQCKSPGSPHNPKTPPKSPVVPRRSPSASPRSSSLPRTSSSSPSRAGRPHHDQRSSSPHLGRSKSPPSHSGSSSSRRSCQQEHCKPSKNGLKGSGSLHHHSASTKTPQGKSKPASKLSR

[12] = biological target: T10, PAK7 (Homo sapiens, UniProt Q9P286); experiment: DiscoverX scanMAX binding assay
T10 construct: purchased Eurofins (radiometric) / Eurofins DiscoverX scanMAX / Reaction Biology / SignalChem
T10 sequence (Q9P286 whole entry): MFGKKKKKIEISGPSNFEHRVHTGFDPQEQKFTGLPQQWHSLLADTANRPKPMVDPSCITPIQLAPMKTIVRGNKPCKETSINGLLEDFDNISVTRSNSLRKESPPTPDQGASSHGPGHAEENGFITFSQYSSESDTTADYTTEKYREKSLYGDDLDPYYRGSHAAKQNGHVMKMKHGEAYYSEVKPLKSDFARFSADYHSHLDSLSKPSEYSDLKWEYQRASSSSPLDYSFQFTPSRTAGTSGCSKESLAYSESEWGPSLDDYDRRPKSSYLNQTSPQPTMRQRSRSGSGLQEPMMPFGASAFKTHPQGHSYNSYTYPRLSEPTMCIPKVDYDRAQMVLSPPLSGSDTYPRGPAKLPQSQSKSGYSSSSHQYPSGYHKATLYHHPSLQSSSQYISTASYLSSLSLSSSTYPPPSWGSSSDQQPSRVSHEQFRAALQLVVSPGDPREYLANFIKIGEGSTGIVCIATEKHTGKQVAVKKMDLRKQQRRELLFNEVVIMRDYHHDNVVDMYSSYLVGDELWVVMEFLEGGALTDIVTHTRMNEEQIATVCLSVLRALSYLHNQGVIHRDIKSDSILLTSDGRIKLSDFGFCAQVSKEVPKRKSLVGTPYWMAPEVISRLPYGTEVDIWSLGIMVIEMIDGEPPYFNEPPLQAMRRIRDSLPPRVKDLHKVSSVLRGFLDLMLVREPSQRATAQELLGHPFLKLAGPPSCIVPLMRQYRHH
Excerpt: as §1, §2

[13] = biological target: T11, PAK4 (Homo sapiens, UniProt O96013); experiment: DiscoverX scanMAX binding assay
T11 construct: purchased Eurofins (radiometric) / Eurofins DiscoverX scanMAX / Reaction Biology / SignalChem
Excerpt: as §1, §2

[14] = biological target: T12, MAP3K2 (Homo sapiens, UniProt Q9Y2U5); experiment: DiscoverX scanMAX binding assay
T12 construct: purchased Eurofins (radiometric) / Eurofins DiscoverX scanMAX / Reaction Biology / SignalChem
T12 sequence (Q9Y2U5 whole entry): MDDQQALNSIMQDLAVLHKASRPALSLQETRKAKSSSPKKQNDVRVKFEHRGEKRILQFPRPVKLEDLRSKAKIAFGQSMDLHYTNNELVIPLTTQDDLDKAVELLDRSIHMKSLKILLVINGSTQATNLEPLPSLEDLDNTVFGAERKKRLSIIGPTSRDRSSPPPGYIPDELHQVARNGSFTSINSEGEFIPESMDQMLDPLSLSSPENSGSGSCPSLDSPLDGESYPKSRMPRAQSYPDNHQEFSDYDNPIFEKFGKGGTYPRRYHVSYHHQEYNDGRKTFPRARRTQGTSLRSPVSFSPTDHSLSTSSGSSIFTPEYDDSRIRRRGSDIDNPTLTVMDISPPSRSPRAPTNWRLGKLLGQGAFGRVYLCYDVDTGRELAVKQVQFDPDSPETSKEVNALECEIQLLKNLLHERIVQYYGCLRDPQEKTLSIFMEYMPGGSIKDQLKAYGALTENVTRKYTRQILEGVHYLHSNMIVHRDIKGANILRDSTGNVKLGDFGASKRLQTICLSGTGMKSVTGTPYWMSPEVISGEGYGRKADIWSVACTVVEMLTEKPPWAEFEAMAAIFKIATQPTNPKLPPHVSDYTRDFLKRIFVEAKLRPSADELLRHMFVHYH
Excerpt: as §1, §2

[15] = biological target: T13, PRKX (Homo sapiens, UniProt P51817); experiment: DiscoverX scanMAX binding assay
T13 construct: purchased Eurofins (radiometric) / Eurofins DiscoverX scanMAX / Reaction Biology / SignalChem
Excerpt: as §1, §2

[16] = biological target: T14, MAP3K3 (Homo sapiens, UniProt Q99759); experiment: DiscoverX scanMAX binding assay
T14 construct: purchased Eurofins (radiometric) / Eurofins DiscoverX scanMAX / Reaction Biology / SignalChem
T14 sequence (Q99759 whole entry): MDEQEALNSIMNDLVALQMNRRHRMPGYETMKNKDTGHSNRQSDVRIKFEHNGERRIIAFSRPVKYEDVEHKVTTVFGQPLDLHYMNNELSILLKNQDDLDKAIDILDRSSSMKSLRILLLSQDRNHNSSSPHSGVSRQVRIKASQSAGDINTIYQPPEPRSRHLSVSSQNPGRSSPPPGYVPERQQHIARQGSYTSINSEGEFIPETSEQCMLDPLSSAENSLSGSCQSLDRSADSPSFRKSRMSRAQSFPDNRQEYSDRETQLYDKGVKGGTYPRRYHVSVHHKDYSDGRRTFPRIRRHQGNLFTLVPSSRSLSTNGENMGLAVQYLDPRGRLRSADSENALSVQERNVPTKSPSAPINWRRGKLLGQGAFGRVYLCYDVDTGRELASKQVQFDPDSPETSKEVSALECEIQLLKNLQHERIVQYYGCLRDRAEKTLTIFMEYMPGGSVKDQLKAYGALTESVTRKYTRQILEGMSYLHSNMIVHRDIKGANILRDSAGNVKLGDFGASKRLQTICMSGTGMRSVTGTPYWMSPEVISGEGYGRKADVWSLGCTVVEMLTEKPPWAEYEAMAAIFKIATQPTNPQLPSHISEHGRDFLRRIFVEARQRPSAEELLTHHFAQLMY
Excerpt: as §1, §2

[17] = biological target: T15, PAK6 (Homo sapiens, UniProt Q9NQU5); experiment: DiscoverX scanMAX binding assay
T15 construct: purchased Eurofins (radiometric) / Eurofins DiscoverX scanMAX / Reaction Biology / SignalChem
T15 sequence (Q9NQU5 whole entry): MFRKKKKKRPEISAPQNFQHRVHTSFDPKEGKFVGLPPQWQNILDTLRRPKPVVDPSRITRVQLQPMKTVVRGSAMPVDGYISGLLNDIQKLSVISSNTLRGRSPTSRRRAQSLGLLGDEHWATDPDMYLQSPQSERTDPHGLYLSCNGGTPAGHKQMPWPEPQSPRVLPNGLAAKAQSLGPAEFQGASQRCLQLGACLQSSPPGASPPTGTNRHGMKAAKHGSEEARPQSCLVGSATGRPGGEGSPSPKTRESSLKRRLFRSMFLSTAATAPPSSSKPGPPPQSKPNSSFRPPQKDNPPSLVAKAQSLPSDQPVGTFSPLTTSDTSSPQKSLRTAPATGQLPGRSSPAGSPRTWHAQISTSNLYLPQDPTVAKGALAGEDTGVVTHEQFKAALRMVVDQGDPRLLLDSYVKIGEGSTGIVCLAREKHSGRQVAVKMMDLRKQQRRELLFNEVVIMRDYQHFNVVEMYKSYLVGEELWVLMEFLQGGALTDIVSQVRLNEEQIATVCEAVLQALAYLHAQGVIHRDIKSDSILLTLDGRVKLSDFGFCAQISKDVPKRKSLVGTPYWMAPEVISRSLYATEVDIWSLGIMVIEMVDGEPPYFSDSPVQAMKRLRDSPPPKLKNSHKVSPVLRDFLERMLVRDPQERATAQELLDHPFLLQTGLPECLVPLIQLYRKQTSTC
Excerpt: as §1, §2

[18] = ATP at Km, dose–response 9-pt curve

`CC(C)(O)C#Cc1ccc2[nH]c3c(c2c1)-c1nc(N)ncc1CC3` [Compound 1] was tested, and the “MEK4 (MKK4) % control at 1000nM / DiscoverX PoC value” [1] was 7.3 % control, the “RPS6KA4(Kin.Dom.2-C-terminal) % control at 1000nM” value [2] was 7.3 % control and the “PIKFYVE % control at 1000nM / DiscoverX PoC value” [3] was 0 % control. For the same compound, the “CSNK1D % control at 1000nM / DiscoverX PoC value” [4] was 3 % control, the “MYLK4 % control at 1000nM / DiscoverX PoC value” [5] was 9.4 % control and the “TAOK2 % control at 1000nM / DiscoverX PoC value” [6] was 1.5 % control. For the same compound, the “PRKCE % control at 1000nM” value [7] was 3.1 % control, the “ΔTm TTBK2” value [8] was 5.6 °C and the “# scanMAX kinases with PoC < 10” value [9] was 20. The “S10(1 μM)” value [9] was 0.05, the “# kinases < 10 PoC in enzyme panel” value [10] was 2 and the pIC50 [11] was < 6.00. For the same compound, the “TTBK2 PoC” value ([11]; ATP at Km) was 43 PoC and the pIC50 [11, 18] was 5.92.

`COC(C)(C)C#Cc1ccc2[nH]c3c(c2c1)-c1nc(N)ncc1CCC3` [Compound 11] was tested, and the “# kinases < 10 PoC in enzyme panel” value [10] was 1 and the “TTBK2 PoC” value ([11]; ATP at Km) was 110 PoC and 110/NT PoC.

In the case of `CC(C)(O)C#Cc1ccc2[nH]cc(-c3ccnc(N)n3)c2c1` [Compound 3], the “PAK7 % control at 1000nM” value ([12]; 1 μM) was 0.4 % control, the “PAK4 % control at 1000nM” value ([13]; 1 μM) was 8.3 % control and the “MAP3K2 % control at 1000nM” value ([14]; 1 μM) was 0.8 % control. For the same compound, the “PRKX % control at 1000nM” value ([15]; 1 μM) was 3.5 % control, the “RPS6KA4(Kin.Dom.2-C-terminal) % control at 1000nM” value [2] was 0.1 % control and the “CSNK1D % control at 1000nM / DiscoverX PoC value” [4] was 8.4 % control. The “MAP3K3 % control at 1000nM” value ([16]; 1 μM) was 7.6 % control, the “PAK6 % control at 1000nM” value ([17]; 1 μM) was 6.7 % control and the “TAOK2 % control at 1000nM / DiscoverX PoC value” [6] was 1.3 % control. The “PRKCE % control at 1000nM” value [7] was 6.8 % control, the “ΔTm TTBK2” value [8] was 6.2 °C and the “# scanMAX kinases with PoC < 10” value [9] was 34. For the same compound, the “S10(1 μM)” value [9] was 0.084, the “# kinases < 10 PoC in enzyme panel” value [10] was 3 and the “TTBK2 PoC” value ([11]; ATP at Km) was 24 PoC. It also gave a pIC50 [11, 18] of 6.42.

In the case of `CC(C)(O)C#Cc1ccc2[nH]c3c(c2c1)-c1nc(N)ncc1CCC3` [AMG28, reference compound], the percent of control (kinase binding) at 1 µM ([12]; read-out: PAK7 % control at 1000nM) was 0.3%, the binding, percent of control at 1 µM ([13]; read-out: PAK4 % control at 1000nM) was 5.7% and the binding, percent of control at 1 µM ([14]; read-out: MAP3K2 % control at 1000nM) was 3.7%. For the same compound, the “MEK4 (MKK4) % control at 1000nM / DiscoverX PoC value” [1] was 8.6 % control, the percent of control (binding) at 1 µM ([15]; read-out: PRKX % control at 1000nM) was 4.3% and the “PIKFYVE % control at 1000nM / DiscoverX PoC value” [3] was 0.4 % control. The percent of control (binding) at 1 µM ([16]; read-out: MAP3K3 % control at 1000nM) was 7.2%, the percent of control (binding) at 1 µM ([17]; read-out: PAK6 % control at 1000nM) was 2.9% and the “MYLK4 % control at 1000nM / DiscoverX PoC value” [5] was 2.8 % control. The “TAOK2 % control at 1000nM / DiscoverX PoC value” [6] was 3.5 % control, the ΔTm at 10 µM [8] was 6.2 °C and the “# scanMAX kinases with PoC < 10” value [9] was 21. For the same compound, the “S10(1 μM)” value [9] was 0.052 and the “TTBK2 PoC” value ([11]; ATP at Km) was 20 PoC.

With `CC(C)(O)C#Cc1ccc2[nH]c3c(c2c1)-c1nc(N)ncc1CCCC3` [Compound 2] the “# kinases < 10 PoC in enzyme panel” value [10] was 1 and the “TTBK2 PoC” value ([11]; ATP at Km) was 69 PoC and 69/NT PoC.

Source: publication PMC10104807, “Modulation of tau tubulin kinases (TTBK1 and TTBK2) impacts ciliogenesis” (Scientific Reports, 2023)
